Like-named read-outs stand apart in the source and are kept apart here. Marks after values point to notes of the source that are not given here. Square brackets hold non-standard residues; d marks the D form. Peptide text beside a SMILES is read from it. * marks the point of attachment. Fmoc = O=C(OCC1c2ccccc2-c2ccccc21)*; Cha = N[C@@H](CC1CCCCC1)C(=O)O; AMC = Cc1cc(=O)oc2cc(N*)ccc12
Assays:
[1] = tested on: Tubulin α1 (Tα1) promoter
Description: (§1) Dual luciferase expressing CGR8-2Luc cells were obtained by transduction of mouse ESC CGR8 cells with the 2K7 EFS-Renilla Luciferase (RLuc)/Talpha1-Firefly Luciferase (FLuc) vector as previously described (Suter et al. [2006], [2009]); EFS corresponds to the short promoter of the eukaryotic translation elongation factor 1 alpha (EF1α), and Talpha1 to the Tubulin α1 (Tα1) promoter. Tα1 was selected as a promoter active in neurons, including early stages of neural differentiation. EF1α was originally selected to function as a constitutive promoter; however, it responds to cellular differentiation as well as to various chemicals, as previously shown (Kern et al. [2013]). Cells were cultured on 0.1 % gelatin-coated dishes in CGR8-2luc maintenance medium: BHK21 medium, supplemented with 10 % fetal calf serum, L-glutamine, non-essential amino acids, penicillin/streptomycin, and leukemia inhibitory factor (LIF). CGR8 cells were grown in a feeder-independent manner (embryonic pluripotent stem cells, ESCs) as described in protocol 1 (Fig. 1) before testing compounds of interest.
(§2) Fig. 1 Synopsis of experimental protocols. The impact of compounds on neural promoter activity (FLuc, Firefly Luciferase under the control of the Tα1 promoter), general promoter activity (RLuc, Renilla Luciferase under the control of the EF1α promoter), and amount of DNA (PI, propidium iodide fluorescence in cell homogenates) was investigated in undifferentiated mouse embryonic pluripotent stem cells (ESCs) and on ESC-derived neurons. Arrows indicate the time of measurement of the three parameters. a Protocol for testing compounds effects on ESCs. CGR8-2Luc cells were plated on gelatin-coated 96-well plates in maintenance medium (BHK21 medium containing 10 % FCS, L-glutamine, NEAA, P/S, and LIF). Twenty-four hours later, cells were exposed to compounds for forty-eight hours. b Protocol for testing compounds on ESC-derived neurons. CGR8-2Luc cells were co-cultured with MS5 cells to induce neural differentiation in DMEM medium containing 15 % KO-serum, NEAA, β-mercaptoethanol, and P/S. On day 5, cells were detached and seeded on polyornithine-coated plates in DMEM medium containing N2 supplement, bFGF, and P/S; compound exposure was from day 6 to day 8
(§3) To test compounds on ESC-derived neurons, neuronal differentiation was carried out as previously described (Suter et al. [2009]; Xu et al. [2014]). Briefly, CGR8-2Luc cells were seeded on irradiated bone marrow-derived stromal MS5 cells and cultivated for 4 days in DMEM medium containing 15 % Knock-out™ Serum Replacement, non-essential amino acids, beta-mercaptoethanol, and penicillin/streptomycin. At day 5, cells were then re-plated (3 × 10^5 cells/cm^2) on polyornithine-coated 96-well plates in N2 medium containing DMEM, N2 supplement, penicillin/streptomycin, and 10 ng/ml basic human fibroblast growth factor (bFGF) (Invitrogen). […] To assess toxicity of compounds on undifferentiated pluripotent stem cells (ESCs), CGR8-2Luc cells were plated at 45,000 cells/cm^2 on 0.1 % gelatin-coated dishes in BHK21 medium, supplemented with 10 % fetal calf serum, L-glutamine, non-essential amino acids, penicillin/streptomycin, and leukemia inhibitory factor (LIF). After 24 h, compounds were added and incubated for 48 h, before luciferase expression and PI fluorescence were analyzed. In all experiments, methylmercury was used as a positive control at a concentration of 5 µM.
(§4) Luciferase activities were measured with a Dual-Luciferase™ Reporter system kit. CGR8-2Luc ES cells were lysed in 96-well plates according to the manufacturer’s instructions. Luminescence measurements were performed on a Fluostar Optima reader. Luminescence counts were expressed as percentage of promoter activity normalized by comparison with the control wells treated by DMSO.

EF1α promoter = tested on: EF1α promoter
Description: as §1, §2, §3, §4

[2] = tested on: ESCs and ESC-derived neurons; experiment: Dual luminescence reporter test system, all readouts in ESCs and ESC-derived neurons
Description: as §2, with “neurons.” for “neurons. CGR8-2Luc cells were co-cultured with MS5 cells to induce neural differentiation in DMEM medium containing 15 % KO-serum, NEAA, β-mercaptoethanol, and P/S. On day 5, cells were detached and seeded on polyornithine-coated plates in DMEM medium containing N2 supplement, bFGF, and P/S; compound exposure was from day 6 to day 8”
as §3, with “At” for “To test compounds on ESC-derived neurons, neuronal differentiation was carried out as previously described (Suter et al. [2009]; Xu et al. [2014]). Briefly, CGR8-2Luc cells were seeded on irradiated bone marrow-derived stromal MS5 cells and cultivated for 4 days in DMEM medium containing 15 % Knock-out™ Serum Replacement, non-essential amino acids, beta-mercaptoethanol, and penicillin/streptomycin. At”
Luciferase activities were measured with a Dual-Luciferase™ Reporter system kit. CGR8-2Luc ES cells were lysed in 96-well plates according to the manufacturer’s instructions. Luminescence measurements were performed on a Fluostar Optima reader. Luminescence counts were expressed as percentage of promoter activity normalized by comparison with the control wells treated by DMSO. […] parameters were measured in homogenates of ESCs and in ESC-derived neurons: (1) FLuc, reflecting the activity of early neural promoter Tα1. FLuc increases during neuronal differentiation. Many neurotoxic compounds may affect FLuc expression, either through impact on neuronal differentiation, through changes of neuronal gene expression, or through killing of neurons.
(§5) PI was added to cell homogenates after the luciferase test, at a final concentration of 50 µg/ml and incubated for 2 h. After incubation, fluorescence intensity was measured on a Flexstation 3 microplate reader (Excitation: 544 nm ± 15 nm; Emission: 620 nm ± 15 nm). Results are expressed as percentage of control. Propidium iodide (PI) measures total DNA content as an approximation of the cell number. A decrease in PI fluorescence was interpreted as a decrease in cell number and therefore throughout the text referred to as cytotoxicity.
To describe the shape of different concentration–response curves, arbitrary scores were assigned as follows: 0 for “no change,” 1 for “down-stroke,” 2 for “bimodal profile,” and 3 for “up-stroke” (Fig. S1). A curve was classified as “down-stroke” or “up-stroke” if the change in response values comparative to control was statistically significant (p value <0.05, one-way ANOVA with post hoc Dunnett) with an additional requirement of a 30 % decrease or increase of mean response value relative to controls, respectively. If the absolute change in mean response values was below 30 % the curve was classified as “no change.” A curve was classified as “bimodal” if first up-stroke and subsequently down-stroke was observed.

[3] = tested on: Tubulin α1 (Tα1) promoter; experiment: cells
Description: as §1, §2, §3, §4

[4] = cited from earlier work
CGR8-2Luc ESCs = tested on: CGR8-2Luc ESCs
Description: as §2, §3
as §5, with “After measurement of luciferase activity, DNA quantity was determined by PI assay, as previously described (Xu et al. [2014]). PI was” for “PI was”
(§6) Lowest adverse effect level (LOAEL) was defined as the lowest tested concentrations that lead to a statistically significant decrease for a given read-out (FLuc, RLuc, and PI) compared to baseline. “Baseline” was not in all cases defined by untreated cells, but may also refer to, e.g., a state of increased activity due to low, non-toxic compound concentrations.

ESC-derived neurons = tested on: ESC-derived neurons
Description: as §2, §3
as §5, with “After measurement of luciferase activity, DNA quantity was determined by PI assay, as previously described (Xu et al. [2014]). PI was” for “PI was”
as §6

[5] = undifferentiated ESCs, 48 h exposure, lowest tested concentration with statistically significant decrease
[6] = ESC-derived neurons, 48 h exposure
[7] = undifferentiated ESCs, 48 h exposure
[8] = undifferentiated ESCs, 48 h exposure, PI assay (cytotoxicity)
[9] = ESC-derived neurons, 48 h exposure, PI assay (cytotoxicity)
[10] = reporter activity changes in the non-cytotoxic concentration range, highest possible number 4

Molecule | LOAEL ESC Tα1 [1, 5] [µM] | LOAEL Neurons EF1α (EF1α promoter; [6]) [µM] | LOAEL ESC EF1α (EF1α promoter; [7]) [µM] | Number of non-cytotoxic changes ([2]; mouse, 48 h) | LOAEL Neurons Tα1 [3, 6] [µM] | Concentration in humans ([4]; ref Zimmer et al. ([2014])) | LOAEL ESC DNA (CGR8-2Luc ESCs; [8]) [µM] | LOAEL Neurons DNA (ESC-derived neurons; [9]) [µM] | LOAEL Neurons Tα1 ([3]; ESC-derived neurons, 48 h exposure, listed as amiodarone) [µM] | result in the dual luminescence reporter test system [2] | Number of non-cytotoxic changes [2, 10] | Concentration in humans ([4]; ref Dewland et al. ([2009])) | LOAEL ESC Tα1 ([1]; mouse) [µM] | LOAEL ESC EF1α (EF1α promoter; mouse) [µM] | LOAEL Neurons EF1α (EF1α promoter; mouse) [µM] | result in the dual luminescence reporter test system ([2]; ESCs and neurons, FLuc, RLuc, PI) | LOAEL Neurons Tα1 ([3]; mouse) [µM] | LOAEL ESC DNA (CGR8-2Luc ESCs; mouse) [µM] | LOAEL Neurons DNA (ESC-derived neurons; mouse) [µM]
COCCCOc1cc(C[C@@H](C[C@H](N)[C@@H](O)C[C@H](C(=O)NCC(C)(C)C(N)=O)C(C)C)C(C)C)ccc1OC [Aliskiren] | >50 | >50 | >50 | 0 | >50 | 0.33^k µM | >50 | >50 | – | – | – | – | – | – | – | – | – | – | –
CCCCc1oc2ccccc2c1C(=O)c1cc(I)c(OCCN(CC)CC)c(I)c1 [Amiodarone] | – | – | – | 1 | 50 | – | – | – | 5 | – | – | – | – | – | – | – | – | – | –
CC(C1CC1)C(O)(Cn1cncn1)c1ccc(Cl)cc1 (centres unmarked) [Cyproconazole] | >50 | >50 | >50 | 0 | >50 | – | >50 | >50 | – | did not give a signal | – | – | – | – | – | – | – | – | –
COc1cccc2c1C(=O)c1c(O)c3c(c(O)c1C2=O)C[C@@](O)(C(=O)CO)C[C@@H]3O[C@H]1C[C@H](N)[C@H](O)[C@H](C)O1 [Doxorubicin] | 0.005 | 0.005 | 0.005 | 0 | 0.005 | – | 0.005 | 0.005 | – | strongly decreased the neuronal and general reporter activities, as well as the cell number | – | – | – | – | – | – | – | – | –
Cc1cc(=O)oc2cc(NC(=O)[C@H](CCCCN)NC(=O)[C@H](CC3CCCCC3)NC(=O)OCC3c4ccccc4-c4ccccc43)ccc12 [Galnon] (Fmoc-[Cha]-Lys-{AMC}) | 20 | 5 | 20 | – | 5 | – | 20 | >20 | – | – | 2 | – | – | – | – | – | – | – | –
CC(C)Cc1ccc(C(C)C(=O)O)cc1 (centres unmarked) [Ibuprofen] | >50 | >50 | >50 | 0 | >50 | – | >50 | >50 | – | negative | – | 150^a µM | – | – | – | – | – | – | –
Cc1ccc(NC(=O)c2ccc(CN3CCN(C)CC3)cc2)cc1Nc1nccc(-c2cccnc2)n1 [Imatinib] | 10 | 10 | >10 | 3 | 10 | – | >10 | >10 | – | – | – | – | – | – | – | – | – | – | –
CCCc1nn(C)c2c(=O)[nH]c(-c3cc(S(=O)(=O)N4CCN(C)CC4)ccc3OCC)nc12 [Sildenafil] | >50 | >50 | >50 | 0 | >50 | – | >50 | >50 | – | – | – | – | – | – | – | – | – | – | –
N[C@@H](CC(=O)N1CCn2c(nnc2C(F)(F)F)C1)Cc1cc(F)c(F)cc1F [Sitagliptin] | >50 | >50 | >50 | 0 | >50 | 1.9^k µM | >50 | >50 | – | – | – | – | – | – | – | – | – | – | –
CC(C)(C)C(=O)C(Oc1ccc(Cl)cc1)n1cncn1 (centres unmarked) [Triadimefon] | – | – | – | – | – | – | – | – | – | relatively weak responses | – | – | 50 | >50 | 50 | potentially neurotoxic | >50 | >50 | >50
Exenatide | >0.02 | >0.02 | >0.02 | – | >0.02 | – | >0.02 | >0.02 | – | – | 0 | – | – | – | – | – | – | – | –
